# Literature values in patent US4925831A, “Aminoalkyl naphthalenediols as host resistance enhancers against viral infection” (priority 1987, dated 1990).
# “Also recorded” adds a separate entry of the source. Read-outs that look alike come from different tables or passages of the source.
# Assays:
# [1] = system: AIDS or ARC patients; conditions: result in words
# [2] = system: HIV reverse transcriptase; conditions: result in words
# [3] = in vivo
# [4] = not given; remark: listed apart in the source
# [5] = system: HIV; conditions: result in words
compound,measurement,setting,value
Cc1ccc(C(=O)Nc2ccc(S(=O)(=O)O)c3cc(S(=O)(=O)O)cc(S(=O)(=O)O)c23)cc1NC(=O)c1cccc(NC(=O)Nc2cccc(C(=O)Nc3cc(C(=O)Nc4ccc(S(=O)(=O)O)c5cc(S(=O)(=O)O)cc(S(=O)(=O)O)c45)ccc3C)c2)c1 [Suramin],clinical efficacy,[1],little or no evidence of clinical improvement or immunologic recovery
same,inhibition of HIV reverse transcriptase,[2],Potent inhibitor of HIV reverse transcriptase
"NC(=O)c1ncn([C@@H]2O[C@H](CO)[C@@H](O)[C@H]2O)n1 [Ribavirin, 1β-D-ribofuranosyl-1,2,4-triazole-3-carboxamide]",clinical efficacy,[1],inhibited viral replication and improved immune function in AIDS patients
"CO[C@H]1/C=C/O[C@@]2(C)Oc3c(C)c(O)c4c(c3C2=O)C2=NC3(CCN(CC(C)C)CC3)NC2=C(NC(=O)/C(C)=C\C=C\[C@H](C)[C@H](O)[C@@H](C)[C@@H](O)[C@@H](C)[C@H](OC(C)=O)[C@@H]1C)C4=O [Ansamycin, rifabutin]",clinical efficacy,[1],some efficacy in treating AIDS patients with an opportunistic infection caused by the bacterium Mycobacterium aviumintracellulare
"CC(C)(S)[C@@H](N)C(=O)O [D-Penicillamine, 3-mercapto-D-valine]",clinical efficacy,[1],Inhibits HIV reproduction in humans; also recorded: suppressed the virus
same,"adverse / toxic effects, tolerability","human, in vivo",temporarily depressed T cell levels in 13 AIDS patients
CC(C)(N1CC1C#N)N1CC1C(N)=O (stereo not shown) [Azimexon],clinical efficacy,[1],improvements in symptoms and immune function in patients with ARC but not AIDS
same,"adverse / toxic effects, tolerability","clinical, result in words",only toxic effect was mild hemolysis
krestin,toxic side effects,[3],"undesirable toxic side effects, such as granulomatous inflammation"
"Cc1cn([C@H]2C[C@H](N=[N+]=[N-])[C@@H](CO)O2)c(=O)[nH]c1=O [Azidothymidine, 3'-azido-3'-deoxythymidine]",half-life in the body,[4]; in vivo,relatively short half-life in the body
same,oral absorption,[4]; oral,Well absorbed orally
same,clinical efficacy,[1],promise in prolonging lives of patients with AIDS or AIDS-related complex (ARC)
same,"adverse / toxic effects, tolerability","clinical, result in words","some toxicity, with anemia and headaches"
same,"adverse / toxic effects, tolerability","clinical, result in words, listed as AZT",virtually no toxic effects
"O=C(O)P(=O)(O)O [Foscarnet, trisodium phosphonoformate]",inhibition of HIV reverse transcriptase,[2],Inhibits HIV reverse transcriptase activity in vitro at levels pharmacologically acceptable in vivo
same,"adverse / toxic effects, tolerability","human, in vivo",serious side effects
CC(=O)Nc1ccc(C(=O)O)cc1.CC(=O)Nc1ccc(C(=O)O)cc1.CC(=O)Nc1ccc(C(=O)O)cc1.CC(O)CN(C)C.CC(O)CN(C)C.CC(O)CN(C)C.O=c1[nH]cnc2c1ncn2[C@@H]1O[C@H](CO)[C@@H](O)[C@H]1O [Inosine pranobex],clinical efficacy,[1],improve immune function in ARC patients
ammonium 21-tungsto-9-antimoniate [HPA-23],clinical efficacy,[1],no therapeutic benefit has been documented in AIDS patients
same,effect on HIV growth / infectivity,[5],some tendency to check the growth of HIV
lentinan,toxic side effects,[3],"undesirable toxic side effects, such as granulomatous inflammation"
α-Interferon,clinical efficacy,[1],induced tumor regression in some AIDS-related Kaposi's sarcoma cases
same,effect on HIV growth / infectivity,[5],Checks the growth of HIV in vitro
